ChEMBL document CHEMBL1201862, “PubChem BioAssay data set” (2004)
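96-well plates; 48 h exposure; 5 concentrations. Endpoints by linear interpolation between flanking doses. Not reached: highest tested concentration assigned. Abbreviation: GI50, concentration required for 50% inhibition of growth.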 The source made the active and inactive calls. Cut-off read from the data, not from the text of the source: active = GI50 up to about 1.1 µM and inactive = higher.

Assays:
Assay in all cases: NCI-60 cell line screen, 48 h
[1] = system: U-251
[2] = system: ACHN
[3] = system: SF-268
[4] = system: HOP-92
[5] = system: NCI-H522
[6] = system: RPMI-8226
[7] = system: SF-295
[8] = system: UACC-62
[9] = system: Malme-3M
[10] = system: EKVX
[11] = system: SK-MEL-2
[12] = system: HOP-62
[13] = system: SK-MEL-5
[14] = system: HCT-116
[15] = system: RXF 631
[16] = system: OVCAR-8
[17] = system: KM-20L2
[18] = system: IGROV-1
[19] = system: SF-539
[20] = system: SK-MEL-28
[21] = system: HL-60
[22] = system: SW-620
[23] = system: NCI-H460
[24] = system: A498
[25] = system: 786-0
[26] = system: NCI-H23
[27] = system: SNB-75
[28] = system: SK-OV-3
[29] = system: HT-29
[30] = system: M14
[31] = system: OVCAR-3
[32] = system: RXF 393
[33] = system: LXFL 529
[34] = system: UACC-257
[35] = system: OVCAR-4
[36] = system: M19-MEL
[37] = system: CCRF-CEM
[38] = system: K562
[39] = system: HCT-15
[40] = system: SN12C
[41] = system: DMS-114
[42] = system: COLO 205
[43] = system: OVCAR-5
[44] = system: DLD-1
[45] = system: DMS-273
[46] = system: CAKI-1
[47] = system: HOP-18
[48] = system: MOLT-4
[49] = system: XF498
[50] = system: SNB-19
[51] = system: A549
[52] = system: SNB-78
[53] = system: UO-31
[54] = system: TK-10
[55] = system: LOX IMVI
[56] = system: HCC 2998
[57] = system: NCI-H226
[58] = system: KM12
[59] = system: SR

Structure (SMILES): Cn1c2c(c3ccccc31)CCN(CCCCN1CCc3c(n(C)c4ccccc34)C1=O)C2
- GI50 [1]: > 100 µM (inactive)
- GI50 [2]: > 100 µM (inactive)
- GI50 [3]: > 100 µM (inactive)
- GI50 [4]: > 100 µM (inactive)
- GI50 [5]: > 100 µM (inactive)
- GI50 [6]: > 100 µM (inactive)
- GI50 [7]: > 100 µM (inactive)
- GI50 [8]: > 100 µM (inactive)
- GI50 [9]: > 100 µM (inactive)
- GI50 [10]: > 100 µM (inactive)
- GI50 [11]: > 100 µM (inactive)
- GI50 [12]: > 100 µM (inactive)
- GI50 [13]: > 100 µM (inactive)
- GI50 [14]: > 100 µM (inactive)
- GI50 [15]: > 100 µM (inactive)
- GI50 [16]: > 100 µM (inactive)
- GI50 [17]: > 100 µM (inactive)
- GI50 [18]: > 100 µM (inactive)
- GI50 [19]: 47.5 µM (inactive)
- GI50 [20]: > 100 µM (inactive)
- GI50 [21]: > 100 µM (inactive)
- GI50 [22]: > 100 µM (inactive)
- GI50 [23]: > 100 µM (inactive)
- GI50 [24]: > 100 µM (inactive)
- GI50 [25]: > 100 µM (inactive)
- GI50 [26]: > 100 µM (inactive)
- GI50 [27]: 88.1 µM (inactive)
- GI50 [28]: 92.7 µM (inactive)
- GI50 [29]: > 100 µM (inactive)
- GI50 [30]: > 100 µM (inactive)
- GI50 [31]: > 100 µM (inactive)
- GI50 [32]: > 100 µM (inactive)
- GI50 [33]: > 100 µM (inactive)
- GI50 [34]: > 100 µM (inactive)
- GI50 [35]: 36.7 µM (inactive)
- GI50 [36]: > 100 µM (inactive)
- GI50 [37]: > 100 µM (inactive)
- GI50 [38]: > 100 µM (inactive)
- GI50 [39]: > 100 µM
- GI50 [40]: > 100 µM (inactive)
- GI50 [41]: 73.1 µM (inactive)
- GI50 [42]: > 100 µM (inactive)
- GI50 [43]: > 100 µM (inactive)
- GI50 [44]: > 100 µM (inactive)
- GI50 [45]: > 100 µM (inactive)
- GI50 [46]: > 100 µM (inactive)
- GI50 [47]: > 100 µM (inactive)
- GI50 [48]: > 100 µM (inactive)
- GI50 [49]: > 100 µM (inactive)
- GI50 [50]: > 100 µM (inactive)
- GI50 [51]: > 100 µM (inactive)
- GI50 [52]: > 100 µM (inactive)
- GI50 [53]: > 100 µM (inactive)
- GI50 [54]: > 100 µM (inactive)

Structure (SMILES): Cc1ccc(S(=O)(=O)SCc2ccccc2CSS(=O)(=O)c2ccc(C)cc2)cc1
- GI50 [1]: 28.6 µM (inactive)
- GI50 [2]: 29 µM (inactive)
- GI50 [3]: 36.6 µM (inactive)
- GI50 [4]: 21.7 µM (inactive)
- GI50 [5]: 10.9 µM (inactive)
- GI50 [6]: 17.5 µM (inactive)
- GI50 [7]: 79.8 µM (inactive)
- GI50 [8]: 15.8 µM (inactive)
- GI50 [9]: 24.2 µM (inactive)
- GI50 [10]: 44.4 µM (inactive)
- GI50 [12]: > 100 µM (inactive)
- GI50 [13]: 59.4 µM (inactive)
- GI50 [14]: 21.3 µM (inactive)
- GI50 [15]: > 100 µM (inactive)
- GI50 [16]: 24.5 µM (inactive)
- GI50 [17]: 78.3 µM (inactive)
- GI50 [18]: > 100 µM (inactive)
- GI50 [19]: 19.5 µM (inactive)
- GI50 [20]: 19.1 µM (inactive)
- GI50 [21]: 12.1 µM (inactive)
- GI50 [22]: 17.1 µM (inactive)
- GI50 [23]: 42.2 µM (inactive)
- GI50 [55]: 15.8 µM (inactive)
- GI50 [24]: 91.2 µM (inactive)
- GI50 [25]: 18.2 µM (inactive)
- GI50 [26]: 18.8 µM (inactive)
- GI50 [27]: 57.7 µM (inactive)
- GI50 [28]: > 100 µM (inactive)
- GI50 [29]: 22.7 µM (inactive)
- GI50 [30]: 19.1 µM (inactive)
- GI50 [31]: 20.5 µM (inactive)
- GI50 [32]: 15.7 µM (inactive)
- GI50 [33]: 15.5 µM (inactive)
- GI50 [34]: 71.9 µM (inactive)
- GI50 [35]: 18.7 µM (inactive)
- GI50 [36]: 23.5 µM (inactive)
- GI50 [38]: 15.7 µM (inactive)
- GI50 [39]: 19.5 µM
- GI50 [40]: 17.7 µM (inactive)
- GI50 [41]: 70.8 µM (inactive)
- GI50 [42]: 17 µM (inactive)
- GI50 [43]: > 10 µM (inactive)
- GI50 [56]: 75.2 µM (inactive)
- GI50 [44]: 15.2 µM (inactive)
- GI50 [45]: 21.1 µM (inactive)
- GI50 [46]: 22.9 µM (inactive)
- GI50 [47]: > 100 µM (inactive)
- GI50 [48]: 16 µM (inactive)
- GI50 [49]: 24.2 µM (inactive)
- GI50 [57]: > 100 µM (inactive)
- GI50 [50]: > 100 µM (inactive)
- GI50 [51]: > 100 µM (inactive)
- GI50 [52]: 20.1 µM (inactive)
- GI50 [53]: 78.3 µM (inactive)
- GI50 [58]: 59.7 µM (inactive)
- GI50 [59]: 16.1 µM (inactive)
- GI50 [54]: > 100 µM (inactive)

Structure (SMILES): O=C(Nc1ccc(Cl)cc1Cl)OC(Cn1cncn1)c1ccc(Cl)cc1Cl (centres undefined)
- GI50 [1]: 16.1 µM (inactive)
- GI50 [2]: 15.5 µM (inactive)
- GI50 [3]: 17.1 µM (inactive)
- GI50 [5]: 16.3 µM (inactive)
- GI50 [6]: 94.6 µM (inactive)
- GI50 [7]: 17.4 µM (inactive)
- GI50 [8]: 14.8 µM (inactive)
- GI50 [9]: 15 µM (inactive)
- GI50 [10]: 16 µM (inactive)
- GI50 [11]: 19.2 µM (inactive)
- GI50 [12]: 19.5 µM (inactive)
- GI50 [13]: 16.7 µM (inactive)
- GI50 [14]: 14.1 µM (inactive)
- GI50 [15]: 18.2 µM (inactive)
- GI50 [16]: 17.3 µM (inactive)
- GI50 [17]: 16.5 µM (inactive)
- GI50 [18]: 16.9 µM (inactive)
- GI50 [19]: 17.9 µM (inactive)
- GI50 [20]: 16.3 µM (inactive)
- GI50 [21]: 44 µM (inactive)
- GI50 [22]: 16.7 µM (inactive)
- GI50 [55]: 16.3 µM (inactive)
- GI50 [24]: 20 µM (inactive)
- GI50 [25]: 19 µM (inactive)
- GI50 [26]: 14.6 µM (inactive)
- GI50 [27]: 16.1 µM (inactive)
- GI50 [28]: 18.3 µM (inactive)
- GI50 [29]: 15.2 µM (inactive)
- GI50 [30]: 17.9 µM (inactive)
- GI50 [31]: 15.8 µM (inactive)
- GI50 [32]: 16.9 µM (inactive)
- GI50 [33]: 16.2 µM (inactive)
- GI50 [34]: 17 µM (inactive)
- GI50 [35]: 14.4 µM (inactive)
- GI50 [36]: 17.1 µM (inactive)
- GI50 [37]: 38.9 µM (inactive)
- GI50 [38]: 15.3 µM (inactive)
- GI50 [39]: 16.6 µM
- GI50 [40]: 16.9 µM (inactive)
- GI50 [41]: 16 µM (inactive)
- GI50 [42]: 17.2 µM (inactive)
- GI50 [44]: 18.5 µM (inactive)
- GI50 [45]: 17.4 µM (inactive)
- GI50 [47]: 23.8 µM (inactive)
- GI50 [48]: 31.6 µM (inactive)
- GI50 [49]: 14.7 µM (inactive)
- GI50 [57]: 19.7 µM (inactive)
- GI50 [50]: 16.9 µM (inactive)
- GI50 [51]: 15.5 µM (inactive)
- GI50 [52]: 15.6 µM (inactive)
- GI50 [53]: 13.2 µM (inactive)
- GI50 [58]: 17.2 µM (inactive)
- GI50 [59]: 41.3 µM (inactive)
